The values that follow are results of earlier work, collected in patent publication US20100056645A1, “Chromatographic Media and Chromatographic Equipment Storage Solutions and Use Thereof” (priority 2007, published 2010).

For this series, the system named is gram positive bacteria.

Consider `OCc1ccccc1` [benzyl alcohol], for which the “pH of optimal bactericidal activity” value is on record as less than 5.0.
